# Literature values in patent publication US20230355643A1, “SOLVENT DELIVERY SYSTEM FOR TOPICAL DELIVERY OF ACTIVE AGENTS” (Timber Pharmaceuticals, Inc., priority 2019, published 2023).
# Conditions: log10 of organic solvent (such as octanol)/aqueous solvent partition coefficient
row,Compound,logP
1,CN(C)CCC(c1ccc(Cl)cc1)c1ccccn1 (stereo not drawn) [chlorpheniramine],~3.38
2,Cc1ccc(-c2ncc(Cl)cc2-c2ccc(S(C)(=O)=O)cc2)cn1 [etoricoxib],~3.7
3,ivermectin,~5.83
4,CC(C(=O)O)c1cccc(Oc2ccccc2)c1 (stereo not drawn) [fenoprofen],~3.1
5,Clc1ccc(COC(Cn2ccnc2)c2ccc(Cl)cc2Cl)cc1 (stereo not drawn) [econazole],~5.5
6,C=C1/C(=C\C=C2/CCC[C@]3(C)[C@@H]([C@H](C)/C=C/[C@@H](O)C4CC4)CC[C@@H]23)C[C@@H](O)C[C@@H]1O [calcipotriol],~3.84
7,O=C(O)c1cc(-c2ccc(F)cc2F)ccc1O [diflunisal],4.44
8,CC(C)(C)c1ccc(C(=O)CCCN2CCC(OC(c3ccccc3)c3ccccc3)CC2)cc1 [ebastine],6.96
9,CN1CCC[C@@H]1CCO[C@](C)(c1ccccc1)c1ccc(Cl)cc1 [clemastine],~5.2
10,CN(C)CCC(c1ccc(Br)cc1)c1ccccn1 (stereo not drawn) [brompheniramine],3.4

# Now from value to compound:
row,logP,Compound
1,~6.76,texaphyrin
2,~3.06,CN1C(C(=O)Nc2ccccn2)=C(O)c2ccccc2S1(=O)=O [piroxicam]
3,"~3,12",CC(C(=O)O)c1cccc(C(=O)c2ccccc2)c1 (stereo not drawn) [ketoprofen]
4,~5.6,"CCOC(=O)c1ccc(C#Cc2ccc3c(c2)C(C)(C)CCS3)nc1 [tazarotene, ethyl 6-[2-(4,4-dimethyl-2,3-dihydrothiochromen-6-yl)ethynyl]pyridine-3-carboxylate]"
5,~5.84,Clc1ccc(CO/N=C(\Cn2ccnc2)c2ccc(Cl)cc2Cl)c(Cl)c1 [oxiconazole]
6,~5.12,Cc1cccc(Nc2ccccc2C(=O)O)c1C [mefenamic acid]
7,~4.27,COc1ccc2c(c1)c(CC(=O)O)c(C)n2C(=O)c1ccc(Cl)cc1 [indometocin]
8,~3.32,Cc1onc(-c2ccccc2)c1-c1ccc(S(N)(=O)=O)cc1 [valdecoxib]
9,~6.1,Clc1ccc(COC(Cn2ccnc2)c2ccc(Cl)cc2Cl)c(Cl)c1 (stereo not drawn) [miconazole]
10,~3.44,O=C(Oc1ccccc1C(=O)O)c1ccccc1O [salsalate]
11,~4.16,CC(C(=O)O)c1ccc(-c2ccccc2)c(F)c1 (stereo not drawn) [flurbiprofen]
